Results on four cell lines are retold here after the supplement of paper PMC10307832.

Holding throughout (test): relative viability (nuclei count vs DMSO), 5 days (fraction); higher = more cells survive
Compound in experiment [1]: CC(C)N(CCCNC(=O)Nc1ccc(C(C)(C)C)cc1)C[C@H]1O[C@@H](n2ccc3c(N)ncnc32)[C@H](O)[C@@H]1O + CC(=O)Nc1cccc(-n2c(=O)n(C3CC3)c(=O)c3c(Nc4ccc(I)cc4F)n(C)c(=O)c(C)c32)c1 [Trametinib] (partner 0.02 µM)
Put shortly: (§1)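 Lung cancer cell lines were seeded in 1536-well plates and dosed by pin tool the next day, with either a single drug or a fixed anchor-drug dose combined with five library-drug doses (not always all listed) spaced in √10 steps. Five days later, one step fixed the cells and stained their nuclei (final 0.05% Triton X-100, 1% formaldehyde, 1 ug/ml Hoechst), and nuclei were counted on 4× images. Relative viability is the nuclei count in treated wells divided by the count in vehicle wells, and each value is the median of duplicate plates.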

Compound in the experiment “Shikonin + Phenformin”: CC(C)=CC[C@@H](O)C1=CC(=O)c2c(O)ccc(O)c2C1=O [Shikonin] + N=C(N)NC(=N)NCCc1ccccc1 [Phenformin] (partner 250 µM)
A digest of the protocol:
as §1

Compound in experiment [2]: CC(C)N(CCCNC(=O)Nc1ccc(C(C)(C)C)cc1)C[C@H]1O[C@@H](n2ccc3c(N)ncnc32)[C@H](O)[C@@H]1O + O=C(CCCCCCC(=O)Nc1ccccc1)NO [Vorinostat] (partner 1 µM)
A digest of the protocol: as §1

Compound in experiment [3]: CC(C)N(CCCNC(=O)Nc1ccc(C(C)(C)C)cc1)C[C@H]1O[C@@H](n2ccc3c(N)ncnc32)[C@H](O)[C@@H]1O + CS(=O)(=O)N1CCN(Cc2cc3nc(-c4cccc5[nH]ncc45)nc(N4CCOCC4)c3s2)CC1 [Pictilisib] (partner 1 µM)
A digest of the protocol:
as §1

On to LU99A, for which the relative viability in experiment [1] (first compound 0.08 µM) stood at 0.509; in experiment [1] (first compound 0.253 µM), 0.44; in experiment [1] (first compound 0.8 µM), 0.519; in experiment [1] (first compound 2.53 µM) it was 0.504; in experiment [1] (first compound 8 µM), 0.508; in the experiment with Shikonin + Phenformin (first compound 0.01 µM) it was 0.859. Moreover, the relative viability was 1.15 in the experiment with Shikonin + Phenformin (first compound 0.1 µM); 0.758 with Shikonin + Phenformin (first compound 0.3162 µM); 0.791 in the experiment with Shikonin + Phenformin (first compound 1 µM); 0.454 in experiment [2] (first compound 0.08 µM); 0.342 in experiment [2] (first compound 0.253 µM); 0.483 in experiment [2] (first compound 0.8 µM). Also, the relative viability came out at 0.539 in experiment [2] (first compound 2.53 µM); 0.409 in experiment [2] (first compound 8 µM); 0.332 in experiment [3] (first compound 0.08 µM); 0.287 in experiment [3] (first compound 0.253 µM); 0.411 in experiment [3] (first compound 0.8 µM); 0.369 in experiment [3] (first compound 2.53 µM). In addition, in experiment [3] (first compound 8 µM), the relative viability is 0.312.

For LXF-289, the relative viability in experiment [1] (first compound 0.08 µM) is 0.661; in experiment [1] (first compound 0.253 µM) it was 0.684; in experiment [1] (first compound 0.8 µM), 0.651; in experiment [1] (first compound 2.53 µM), 0.732; in experiment [1] (first compound 8 µM), 0.71; with Shikonin + Phenformin (first compound 0.01 µM) it was 0.533. The relative viability was found to be 0.526 with Shikonin + Phenformin (first compound 0.1 µM); 0.535 in the experiment with Shikonin + Phenformin (first compound 0.3162 µM); 0.535 with Shikonin + Phenformin (first compound 1 µM); 0.748 in experiment [2] (first compound 0.08 µM); 0.762 in experiment [2] (first compound 0.253 µM); 0.726 in experiment [2] (first compound 0.8 µM). Besides, the relative viability in experiment [2] (first compound 2.53 µM) is 0.752; in experiment [2] (first compound 8 µM), 0.701; in experiment [3] (first compound 0.08 µM), 0.775; in experiment [3] (first compound 0.253 µM), 0.752; in experiment [3] (first compound 0.8 µM), 0.788; in experiment [3] (first compound 2.53 µM), 0.852. In addition, the relative viability in experiment [3] (first compound 8 µM) was found to be 0.738.

As to NCI-H23, the relative viability in experiment [1] (first compound 0.08 µM) worked out at 0.336; in experiment [1] (first compound 0.8 µM), 0.361; in experiment [1] (first compound 2.53 µM), 0.547; in experiment [1] (first compound 8 µM) it was 0.373; in the experiment with Shikonin + Phenformin (first compound 0.01 µM) it was 0.864; with Shikonin + Phenformin (first compound 0.1 µM) it was 0.812. In addition, the relative viability with Shikonin + Phenformin (first compound 0.3162 µM) stood at 0.849; with Shikonin + Phenformin (first compound 1 µM), 0.717; in experiment [2] (first compound 0.08 µM), 0.582; in experiment [2] (first compound 0.8 µM) it was 0.557; in experiment [2] (first compound 2.53 µM), 0.639; in experiment [2] (first compound 8 µM) it was 0.549. The relative viability in experiment [3] (first compound 0.08 µM) came out at 0.455; in experiment [3] (first compound 0.8 µM), 0.478; in experiment [3] (first compound 2.53 µM), 0.568; in experiment [3] (first compound 8 µM) it was 0.454.

As to NCI-H322M, the relative viability in experiment [1] (first compound 0.08 µM) amounted to 0.5; in experiment [1] (first compound 0.253 µM), 0.533; in experiment [1] (first compound 0.8 µM), 0.544; in experiment [1] (first compound 2.53 µM), 0.475; in experiment [1] (first compound 8 µM) it was 0.517; with Shikonin + Phenformin (first compound 0.01 µM) it was 0.871. Also, the relative viability with Shikonin + Phenformin (first compound 0.1 µM) was 0.856; in the experiment with Shikonin + Phenformin (first compound 0.3162 µM), 0.754; with Shikonin + Phenformin (first compound 1 µM), 0.836; in experiment [2] (first compound 0.08 µM), 0.891; in experiment [2] (first compound 0.253 µM), 0.899; in experiment [2] (first compound 0.8 µM), 0.805. For the same cell line, the relative viability came out at 0.842 in experiment [2] (first compound 2.53 µM); 0.912 in experiment [2] (first compound 8 µM); 0.54 in experiment [3] (first compound 0.08 µM); 0.478 in experiment [3] (first compound 0.253 µM); 0.566 in experiment [3] (first compound 0.8 µM); 0.44 in experiment [3] (first compound 2.53 µM). Also, the relative viability in experiment [3] (first compound 8 µM) came out at 0.57.
